Measurements reported in patent US20250311722A1, “IMPROVED BIOCIDE” (Purgos ApS, priority 2022, published 2025).
“And” between values parts separate entries of the source, which are not always exact repeats. Identical values can stand only once.

Tests used:
[1] = tested on: Debaryomyces hansenii ISI 12; assay: Minimal inhibitory concentration (MIC); assay type: cell-based
Description: Minimum inhibitory concentrations (MICs) are defined as the lowest concentration of an antimicrobial that will inhibit the visible growth of a microorganism after a standardized incubation. In the present study, MIC assay was performed by pipetting robot. The principle is that an indicator microorganism at a defined cell density is cultured with a range of concentrations of the test compound, one concentration pr, well in a row on the microtiter plate. For bacteria and yeasts the minimal inhibitory concentration was detected as no increase of optical density (OD), for moulds microtiter plates were read visually. Each indicator organism is tested in duplicate and the MIC is calculated as the average of the two determinations. The tested concentrations of the antimicrobial substances were 2-fold dilutions from 5%. All indicator organisms (see Table 2.) were pre-cultivated in a suitable growth medium and diluted in the same medium to give a final concentration in the assay of ˜1×10^3 cfu/ml. The microtiter plates were incubated under specific incubation conditions (see Table III). [table]

[2] = tested on: Pseudomonas aeruginosa, ATCC 10145; assay: PT6 screening, in-can preservation of acrylic paint (ATP, aerobic and anaerobic growth on agar plate); assay type: cell-based
Description: The microbial activity in relation to in-can preservation of paint was tested using three methods: ATP measurement, Aerobic growth on agar plate and Anaerobic growth on agar plate in low-air conditions. […] Furthermore, no significant dependence on concentration was shown in these specific tests. Specific about the ATP measurements: test and method developed by Luminultra. A sample is taken from the test paint at a given time and the total amount of ATP is measured. Total ATP amount are measured at Day 7 and 30. After every ATP measurement, streaking of test material on agar plates has been performed. Growth test in aerobic and anaerobic environment are running in 1 and 14 days, respectively. Test organism: Pseudomonas aeruginosa, ATCC 10145 [table] The commercial biocide used for the results listed in Table VIII is Vinkocide CMIK R. Acrylic paint is standard EN152 (modified without PT6 biocide). P. aeruginosa are inoculated in 200 μl concentration to paint sample size of 140 ml in a sterile “paint can-shape” container. Shark Solution candidate A and the commercial biocide are added to the standard paint and mixed in a shaker machine. Every matrix is tested in two replications (n=2) with an additional replication without inoculation of bacteria.

With `CCCCN(CCO)CCO` [NBDA, N-butyldiethanolamine] the “MIC (%)” value [1] was 1.25%, the “MIC data (optical density)” value ([1]; 0.02% NBDA) was 1.027 and 1.215 and the “MIC data (optical density)” value ([1]; 0.04% NBDA) was 0.964 and 1.224. The “MIC data (optical density)” value ([1]; 0.08% NBDA) was 0.974 and 1.114, the “MIC data (optical density)” value ([1]; 0.16% NBDA) was 0.975 and 1.145 and the “MIC data (optical density)” value ([1]; 0.31% NBDA) was 0.877 and 0.973. For the same molecule, the “MIC data (optical density)” value ([1]; 0.63% NBDA) was 0.619 and 0.582, the “MIC data (optical density)” value ([1]; 1.25% NBDA) was 0.047 and the “MIC data (optical density)” value ([1]; 2.50% NBDA) was 0.045 and 0.046. The “MIC data (optical density)” value ([1]; 5.00% NBDA) was 0.044 and 0.043, the “anti-microbial potential in paint” value ([2]; 1, 2 and 5% NBDA) was “reveal anti-microbial potentials” and the “effectiveness in in-can preservation of paints” value ([2]; concentrations of 0.5%, 1%, 2%, and 5%) was “effective against aerobic bacteria”.
